Patent US20130274210A1, “DENDRIMERS WITH A SACCHARIDE ENDING FOR ANTI-INFLAMMATORY PURPOSES” (UNIVERSITE PAUL SABATIER TOULOUSE III, priority 2010, published 2013)

Legend:
[1] = Solubility (properties of prepared molecules); format: physicochemical
[2] = system: human dendritic cells stimulated with LPS; conditions: stimulation by LPS, via DC-SIGN receptor; background statement; cited from earlier work

Compound	solubility [1]	production of IL-10 by human dendritic cells [2]	production of pro-inflammatory cytokines by human dendritic cells [2]
NNC(=O)CCOC1OC(CO)C(O)C(O)C1O (centres unmarked)	soluble in H2O, MeOH, DMF		
NNC(=O)CCCCCCCCOC1OC(CO)C(O)C(O)C1OC1OC(CO)C(O)C(O)C1O (centres unmarked)	soluble in H2O, MeOH, DMF		
NNC(=O)CCCCCCCCOC1OC(CO)C(O)C(O)C1OC1OC(CO)C(O)C(O)C1OC1OC(CO)C(O)C(O)C1O (centres unmarked)	soluble in H2O, MeOH, DMF		
Mannosylated lipoarabinomannan [ManLAM]		increase in the production of IL-10	decrease in the production of pro-inflammatory cytokines
